# Source: patent US20070117773A1, “Telomerase-inhibiting ENA oligonucleotide” (SANKYO COMPANY, LIMITED, priority 2004, published 2007)
# Test system: RNA oligonucleotide having the sequence of telomerase RNA (5′-UUGUCUAACCCUA-3′)
# Test: Test for determining melting temperature (Tm) with telomerase RNA oligonucleotide
# Type: binding, human
# Conditions: 3.4 μM compound + 3.4 μM RNA oligonucleotide, 10 mM sodium phosphate buffer (pH 7.2), absorbance at 260 nm, 20° C. to 95° C.
row,Substance,Tm (melting temperature) [°C]
1,HO-T^e2s-A^e2s-G^e2s-G^e2s-G^e2s-T^e2s-T^e2s-A^e2s-G^e2s-CH2CH2OH [Example 6],71
2,HO-T^e2s-A^e2s-G^e2s-G^e2s-G^e2s-T^e2s-T^e2s-A^e2s-G^e2s-A^e2s-C^e2s-A^e2s-CH2CH2OH [Example 2],87
3,HO-T^e2s-A^e2s-G^e2s-G^e2s-G^e2s-T^e2s-T^e2s-A^e2s-G^e2s-C^e2s-A^e2s-A^e2s-CH2CH2OH [Example 1],85

# Next, values leading:
row,Tm (melting temperature) [°C],Substance
1,62,HO-T^e2s-A^e2s-G^e2s-G^e2s-G^e2s-T^e2s-T^e2s-A^e2s-CH2CH2OH [Example 4]
2,52,HO-T^e2s-A^e2s-G^e2s-G^e2s-G^e2s-T^e2s-T^e2s-CH2CH2OH [Example 5]
3,74,HO-T^e2s-A^e2s-G^e2s-G^e2s-G^e2s-T^e2s-T^e2s-A^e2s-G^e2s-A^e2s-CH2CH2OH [Example 3]
